Data: the NIST ThermoML archive (doi:10.1021/je0342320)

Settings: Liquid, Vibrating tube method

CCCCCCCCCC [decane]
mass density [kg/m3]
Settings | 283.15 K | 288.15 K | 293.15 K | 298.15 K | 303.15 K | 308.15 K | 313.15 K | 318.15 K | 323.15 K | 328.15 K
100 kPa | 737.4 | 733.69 | 729.94 | 726.19 | 722.46 | 718.65 | 714.79 | 710.99 | 707.17 | 703.3
5000 kPa | 740.81 | 737.19 | 733.53 | 729.88 | 726.23 | 722.52 | 718.83 | 715.08 | 711.4 | 707.67
10000 kPa | 744.17 | 740.63 | 737.08 | 733.52 | 729.98 | 726.36 | 722.76 | 719.13 | 715.55 | 711.97
15000 kPa | 747.39 | 743.93 | 740.5 | 737 | 733.55 | 730.01 | 726.52 | 722.99 | 719.49 | 716.03
20000 kPa | 750.49 | 747.14 | 743.76 | 740.37 | 736.98 | 733.55 | 730.14 | 726.69 | 723.28 | 719.87
25000 kPa | 753.52 | 750.22 | 746.92 | 743.6 | 740.29 | 737.01 | 733.61 | 730.22 | 726.9 | 723.57
30000 kPa | 756.43 | 753.19 | 749.98 | 746.72 | 743.46 | 740.13 | 736.95 | 733.65 | 730.37 | 727.1
35000 kPa | 759.27 | 756.11 | 752.94 | 749.72 | 746.54 | 743.26 | 740.17 | 736.93 | 733.71 | 730.51
40000 kPa | 762.02 | 758.92 | 755.79 | 752.67 | 749.5 | 746.32 | 743.25 | 740.05 | 736.93 | 733.79

COC(=O)OC [dimethyl carbonate]
mass density [kg/m3]
Settings | 283.15 K | 288.15 K | 293.15 K | 298.15 K | 303.15 K | 308.15 K | 313.15 K | 318.15 K | 323.15 K | 328.15 K
100 kPa | 1083.17 | 1076.43 | 1069.76 | 1063.1 | 1056.41 | 1049.66 | 1042.86 | 1036.04 | 1029.21 | 1022.24
5000 kPa | 1087.33 | 1080.8 | 1074.22 | 1067.7 | 1061.17 | 1054.59 | 1047.94 | 1041.3 | 1034.63 | 1027.92
10000 kPa | 1091.39 | 1085.02 | 1078.58 | 1072.21 | 1065.82 | 1059.39 | 1052.91 | 1046.44 | 1039.95 | 1033.45
15000 kPa | 1095.34 | 1089.07 | 1082.76 | 1076.52 | 1070.29 | 1064 | 1057.67 | 1051.36 | 1045.04 | 1038.69
20000 kPa | 1099.13 | 1093 | 1086.83 | 1080.7 | 1074.59 | 1068.43 | 1062.22 | 1056.08 | 1049.91 | 1043.71
25000 kPa | 1102.79 | 1096.79 | 1090.73 | 1084.74 | 1078.74 | 1072.65 | 1066.6 | 1060.6 | 1054.58 | 1048.53
30000 kPa | 1106.39 | 1100.48 | 1094.5 | 1088.62 | 1082.75 | 1076.8 | 1070.82 | 1064.95 | 1059.07 | 1053.14
35000 kPa | 1109.85 | 1104.03 | 1098.19 | 1092.39 | 1086.6 | 1080.78 | 1074.93 | 1069.15 | 1063.39 | 1057.57
40000 kPa | 1113.17 | 1107.5 | 1101.74 | 1096.04 | 1090.35 | 1084.63 | 1078.87 | 1073.21 | 1067.56 | 1061.87
